Laboratory results from ChEMBL document CHEMBL5532698, “2,3-Dihydroquinazolin-4(1H)-ones and quinazolin-4(3H)-ones as broad-spectrum cytotoxic agents and their impact on tubulin polymerisation” (RSC Med Chem, 2024).
Calls of active or inactive are those of the source. The rule behind the calls is not given here.

Columns and labels:
Tubulin (Homo sapiens) = Tubulin (Homo sapiens) (UniProt P68371+Q9H4B7+P0DPH7+P68366+Q13509+Q71U36+P04350+Q3ZCM7+P07437+P68363+Q9BQE3+Q6PEY2+Q13885+Q9BVA1+Q9BUF5); experiment: Induction of tubulin (unknown origin) polymerization assessed as microtubule formation by measuring increase in fluorescence at 10 uM by fluorometric analysis; format: protein-complex assay; conditions: filed as activator
A-431 [1] = experiment: Antiproliferative activity against human A-431 cells assessed as cell growth inhibition incubated for 72 hrs by MTT assay; format: functional
HT-29 [2] = experiment: Antiproliferative activity against human HT-29 cells assessed as cell growth inhibition incubated for 72 hrs by MTT assay; format: functional
HT-29 [3] = experiment: Antiproliferative activity against human HT-29 cells assessed as cell growth inhibition at 25 uM incubated for 72 hrs by MTT assay relative to control; format: functional
NCI-H460 [4] = experiment: Antiproliferative activity against human NCI-H460 cells assessed as cell growth inhibition at 25 uM incubated for 72 hrs by MTT assay relative to control; format: functional
MCF7 [5] = experiment: Antiproliferative activity against human MCF7 cells assessed as cell growth inhibition incubated for 72 hrs by MTT assay; format: functional
U-87 MG [6] = experiment: Antiproliferative activity against human U87 cells assessed as cell growth inhibition at 25 uM incubated for 72 hrs by MTT assay relative to control; format: functional, U-87MG ATCC
U-87 MG [7] = experiment: Antiproliferative activity against human U87 cells assessed as cell growth inhibition incubated for 72 hrs by MTT assay; format: functional, U-87MG ATCC
BE(2)-C [8] = experiment: Antiproliferative activity against human BE2C cells assessed as cell growth inhibition incubated for 72 hrs by MTT assay; format: functional
A-431 [9] = experiment: Antiproliferative activity against human A-431 cells assessed as cell growth inhibition at 25 uM incubated for 72 hrs by MTT assay relative to control; format: functional
MIA PaCa-2 [10] = experiment: Antiproliferative activity against human MIA PaCa-2 cells assessed as cell growth inhibition at 25 uM incubated for 72 hrs by MTT assay relative to control; format: functional
A2780 [11] = experiment: Antiproliferative activity against human A2780 cells assessed as cell growth inhibition at 25 uM incubated for 72 hrs by MTT assay relative to control; format: functional
DU-145 [12] = experiment: Antiproliferative activity against human DU-145 cells assessed as cell growth inhibition incubated for 72 hrs by MTT assay; format: functional
A2780 [13] = experiment: Antiproliferative activity against human A2780 cells assessed as cell growth inhibition incubated for 72 hrs by MTT assay; format: functional
BE(2)-C [14] = experiment: Antiproliferative activity against human BE2C cells assessed as cell growth inhibition at 25 uM incubated for 72 hrs by MTT assay relative to control; format: functional
DU-145 [15] = experiment: Antiproliferative activity against human DU-145 cells assessed as cell growth inhibition at 25 uM incubated for 72 hrs by MTT assay relative to control; format: functional
[16] = Cytotoxicity against human MCF-10A cells assessed as cell growth inhibition incubated for 72 hrs by MTT assay; format: toxicity, cell-based
MCF7 [17] = experiment: Antiproliferative activity against human MCF7 cells assessed as cell growth inhibition at 25 uM incubated for 72 hrs by MTT assay relative to control; format: functional
NCI-H460 [18] = experiment: Antiproliferative activity against human NCI-H460 cells assessed as cell growth inhibition incubated for 72 hrs by MTT assay; format: functional
[19] = Cytotoxicity against human MCF-10A cells assessed as cell growth inhibition at 25 uM incubated for 72 hrs by MTT assay relative to control; format: toxicity, cell-based
MIA PaCa-2 [20] = experiment: Antiproliferative activity against human MIA PaCa-2 cells assessed as cell growth inhibition incubated for 72 hrs by MTT assay; format: functional
[21] = Antiproliferative activity against human SJG2 cells assessed as cell growth inhibition incubated for 72 hrs by MTT assay; format: functional; conditions: SJ-G2
[22] = Antiproliferative activity against human SJG2 cells assessed as cell growth inhibition at 25 uM incubated for 72 hrs by MTT assay relative to control; format: functional; conditions: SJ-G2

| SMILES | GI50 (A-431 [1]) [µM] | GI50 (HT-29 [2]) [µM] | inhibition at 25 µM (HT-29 [3]) [%] | inhibition at 25 µM (NCI-H460 [4]) [%] | GI50 (MCF7 [5]) [µM] | inhibition at 25 µM (U-87 MG [6]) [%] | GI50 (U-87 MG [7]) [µM] | GI50 (BE(2)-C [8]) [µM] | inhibition at 25 µM (A-431 [9]) [%] | inhibition at 25 µM (MIA PaCa-2 [10]) [%] | inhibition at 25 µM (A2780 [11]) [%] | GI50 (DU-145 [12]) [µM] | GI50 (A2780 [13]) [µM] | inhibition at 25 µM (BE(2)-C [14]) [%] | inhibition at 25 µM (DU-145 [15]) [%] | GI50 at 72 h [16] [µM] | inhibition at 25 µM (MCF7 [17]) [%] | GI50 (NCI-H460 [18]) [µM] | inhibition at 72 h, 25 µM [19] [%] | GI50 (MIA PaCa-2 [20]) [µM] | other results |
| --- | --- | --- | --- | --- | --- | --- | --- | --- | --- | --- | --- | --- | --- | --- | --- | --- | --- | --- | --- | --- | --- |
| CC(=O)O[C@H]1C(=O)[C@@]2(C)[C@H]([C@H](OC(=O)c3ccccc3)[C@]3(O)C[C@H](OC(=O)[C@H](O)[C@@H](NC(=O)c4ccccc4)c4ccccc4)C(C)=C1C3(C)C)[C@]1(OC(C)=O)CO[C@@H]1C[C@@H]2O | – | – | – | – | – | – | – | – | – | – | – | – | – | – | – | – | – | – | – | – | Activity (Tubulin (Homo sapiens)): Active |
| O=C1NC(/C=C/c2ccco2)Nc2ccccc21 (stereo not given) | 2.1 | 2.2 | 90 | 93 | 7.4 | 99 | 4.3 | 2.6 | > 100 | 93 | > 100 | 4 | 3 | 100 | 100 | 3.4 | 83 | 3.3 | 100 | 3.6 | GI50 [21]: 3 µM; inhibition at 25 µM [22]: 100% |
| O=C1NC(c2cccc([N+](=O)[O-])c2)Nc2ccccc21 (stereo not given) | 20 | 17 | 78 | 59 | 6.7 | 20 | > 50 | 19 | 67 | 56 | 69 | 45 | 18 | 58 | 33 | 21 | > 100 | 24 | 54 | 20 | GI50 [21]: 22 µM; inhibition at 25 µM [22]: 61% |
| O=C1NC(c2cccc(C(F)(F)F)c2)Nc2ccccc21 (stereo not given) | 2.7 | 2.9 | > 100 | 100 | 5.6 | > 100 | 3.2 | 3.1 | > 100 | 95 | 100 | 3 | 2.9 | > 100 | > 100 | 3.1 | 83 | 3.2 | > 100 | 4.4 | GI50 [21]: 3.3 µM; inhibition at 25 µM [22]: > 100% |
| O=C1NC(c2ccc(-c3ccccc3)cc2)Nc2ccccc21 (stereo not given) | 2.4 | 2.3 | > 100 | > 100 | 1.6 | > 100 | 2.2 | 2 | > 100 | > 100 | > 100 | 2.3 | 3.8 | 92 | > 100 | 2.3 | > 100 | 2.8 | 98 | 2.3 | GI50 [21]: 2.6 µM; inhibition at 25 µM [22]: > 100% |
| O=C1NC(c2cccc(O)c2)Nc2ccccc21 (stereo not given) | 3.7 | 6.3 | > 100 | 94 | 13 | 65 | 19 | 6.4 | > 100 | 86 | 95 | 16 | 3 | 97 | 72 | 14 | 66 | 14 | 92 | 15 | GI50 [21]: 12 µM; inhibition at 25 µM [22]: > 100% |
| O=C1NC(c2ccc(O)cc2)Nc2ccccc21 (stereo not given) | 3.2 | 3.7 | > 100 | 88 | 12 | 72 | 16 | 4.1 | 108 | 84 | 95 | 10 | 3.2 | 100 | 90 | 9.9 | 55 | 10 | 91 | 8.8 | GI50 [21]: 8.9 µM; inhibition at 25 µM [22]: > 100% |
| O=C1NC(c2ccc(Br)cc2)Nc2ccccc21 (stereo not given) | 3.1 | 2.9 | > 100 | 97 | 3.6 | 88 | 4.7 | 2.6 | > 100 | 90 | 99 | 3.3 | 3.1 | > 100 | > 100 | 4 | 89 | 3.2 | 95 | 3.2 | GI50 [21]: 2.5 µM; inhibition at 25 µM [22]: > 100% |
| CC(C)(C)c1ccc(C2NC(=O)c3ccccc3N2)cc1 (stereo not given) | > 50 | 9.7 | 79 | 44 | 8.4 | 40 | > 50 | 20 | 32 | 60 | 63 | 35 | 15 | 47 | 47 | 19 | > 100 | > 50 | 53 | 14 | GI50 [21]: > 50 µM; inhibition at 25 µM [22]: 46% |
| O=C1NC(c2cc3ccccc3o2)Nc2ccccc21 (stereo not given) | 2.7 | 2.6 | ≥ 92 | 77 | 3.3 | 47 | 4.1 | 3.1 | ≥ 75 | 76 | ≥ 57 | 4.8 | 2.9 | 66 | ≥ 28 | 3.9 | 63 | 3.1 | 76 | 3.5 | GI50 [21]: 3 µM; inhibition at 25 µM [22]: ≥ 71% |
| Cc1ccc(C2NC(=O)c3ccccc3N2)cc1 (stereo not given) | 2.3 | 1.6 | > 100 | > 100 | 4 | > 100 | 2.6 | 1.9 | > 100 | 95 | > 100 | 3.1 | 2.3 | 87 | > 100 | 3.1 | 90 | 3.2 | 100 | 3.4 | GI50 [21]: 2.9 µM; inhibition at 25 µM [22]: > 100% |
| O=C1NC(c2ccccc2Br)Nc2ccccc21 (stereo not given) | 2.3 | 2.4 | > 100 | 95 | 3.7 | 80 | 10 | 2.5 | > 100 | 89 | 96 | 4.3 | 2.5 | > 100 | 100 | 4.3 | 82 | 3.6 | 94 | 4.2 | GI50 [21]: 3 µM; inhibition at 25 µM [22]: > 100% |
| O=C1NC(c2cccs2)Nc2ccccc21 (stereo not given) | 7.4 | 7.6 | 90 | 88 | 11 | 56 | 23 | 9.3 | > 100 | 74 | 98 | 25 | 4.7 | 91 | 57 | 15 | 91 | 15 | 84 | 18 | GI50 [21]: 23 µM; inhibition at 25 µM [22]: 60% |
